Source: ChEMBL document CHEMBL4507304, “Data for DCP probe TP-021” (2021)

Tests used:
[1] = test system: Tyrosine-protein kinase ABL1 (Homo sapiens), P00519 [F317I]; conditions: Compound concentration 1000.0 nM
[2] = target: Activin receptor type-2A (Homo sapiens) (UniProt P27037); conditions: Compound concentration 1000.0 nM
[3] = target: Bone morphogenetic protein receptor type-1A (Homo sapiens) (UniProt P36894); conditions: Compound concentration 1000.0 nM
[4] = target: Cyclin-dependent kinase 4 (Homo sapiens) (UniProt P11802); conditions: Compound concentration 1000.0 nM
[5] = target: Cyclin-dependent kinase 7 (Homo sapiens) (UniProt P50613); conditions: Compound concentration 1000.0 nM
[6] = target: Cyclin-dependent kinase 9 (Homo sapiens) (UniProt P50750); conditions: Compound concentration 1000.0 nM
[7] = target: Cyclin-dependent kinase-like 2 (Homo sapiens) (UniProt Q92772); conditions: Compound concentration 1000.0 nM
[8] = target: Cyclin-dependent kinase-like 3 (Homo sapiens) (UniProt Q8IVW4); conditions: Compound concentration 1000.0 nM
[9] = target: Casein kinase I isoform alpha-like (Homo sapiens) (UniProt Q8N752); conditions: Compound concentration 1000.0 nM
[10] = target: Casein kinase I isoform epsilon (Homo sapiens) (UniProt P49674); conditions: Compound concentration 1000.0 nM
[11] = target: Casein kinase I isoform gamma-1 (Homo sapiens) (UniProt Q9HCP0); conditions: Compound concentration 1000.0 nM
[12] = target: Death-associated protein kinase 2 (Homo sapiens) (UniProt Q9UIK4); conditions: Compound concentration 1000.0 nM
[13] = target: Death-associated protein kinase 3 (Homo sapiens) (UniProt O43293); conditions: Compound concentration 1000.0 nM
[14] = target: Serine/threonine-protein kinase MRCK gamma (Homo sapiens) (UniProt Q6DT37); conditions: Compound concentration 1000.0 nM
[15] = target: Fibroblast growth factor receptor 3 (Homo sapiens) (UniProt P22607); conditions: Compound concentration 1000.0 nM
[16] = test system: Fibroblast growth factor receptor 3 (Homo sapiens), P22607 [G697C]; conditions: Compound concentration 1000.0 nM
[17] = target: Tyrosine-protein kinase Fgr (Homo sapiens) (UniProt P09769); conditions: Compound concentration 1000.0 nM
[18] = target: Glycogen synthase kinase-3 beta (Homo sapiens) (UniProt P49841); conditions: Compound concentration 1000.0 nM
[19] = target: Insulin receptor (Homo sapiens) (UniProt P06213); conditions: Compound concentration 1000.0 nM
[20] = target: Insulin receptor-related protein (Homo sapiens) (UniProt P14616); conditions: Compound concentration 1000.0 nM
[21] = target: Tyrosine-protein kinase Lck (Homo sapiens) (UniProt P06239); conditions: Compound concentration 1000.0 nM
[22] = target: Leucine-rich repeat serine/threonine-protein kinase 2 (Homo sapiens) (UniProt Q5S007); conditions: Compound concentration 1000.0 nM
[23] = target: Mitogen-activated protein kinase kinase kinase kinase 2 (Homo sapiens) (UniProt Q12851); conditions: Compound concentration 1000.0 nM
[24] = target: Serine/threonine-protein kinase MARK1 (Homo sapiens) (UniProt Q9P0L2); conditions: Compound concentration 1000.0 nM
[25] = target: Dual specificity mitogen-activated protein kinase kinase 6 (Homo sapiens) (UniProt P52564); conditions: Compound concentration 1000.0 nM
[26] = target: Tyrosine-protein kinase Mer (Homo sapiens) (UniProt Q12866); conditions: Compound concentration 1000.0 nM
[27] = test system: Hepatocyte growth factor receptor (Homo sapiens), P08581 [Y1235D]; conditions: Compound concentration 1000.0 nM
[28] = target: Mitogen-activated protein kinase kinase kinase 9 (Homo sapiens) (UniProt P80192); conditions: Compound concentration 1000.0 nM
[29] = target: Muscle, skeletal receptor tyrosine-protein kinase (Homo sapiens) (UniProt O15146); conditions: Compound concentration 1000.0 nM
[30] = target: Serine/threonine-protein kinase 38 (Homo sapiens) (UniProt Q15208); conditions: Compound concentration 1000.0 nM
[31] = target: Mitogen-activated protein kinase 13 (Homo sapiens) (UniProt O15264); conditions: Compound concentration 1000.0 nM
[32] = target: Phosphatidylinositol 3-kinase C2 domain-containing subunit gamma (Homo sapiens) (UniProt O75747); conditions: Compound concentration 1000.0 nM
[33] = target: Phosphatidylinositol 4,5-bisphosphate 3-kinase catalytic subunit beta isoform (Homo sapiens) (UniProt P42338); conditions: Compound concentration 1000.0 nM
[34] = target: Serine/threonine-protein kinase pim-2 (Homo sapiens) (UniProt Q9P1W9); conditions: Compound concentration 1000.0 nM
[35] = target: Serine/threonine-protein kinase N1 (Homo sapiens) (UniProt Q16512); conditions: Compound concentration 1000.0 nM
[36] = target: Protein kinase C iota type (Homo sapiens) (UniProt P41743); conditions: Compound concentration 1000.0 nM
[37] = target: Protein-tyrosine kinase 2-beta (Homo sapiens) (UniProt Q14289); conditions: Compound concentration 1000.0 nM
[38] = target: Proto-oncogene tyrosine-protein kinase Src (Homo sapiens) (UniProt P12931); conditions: Compound concentration 1000.0 nM
[39] = target: Tyrosine-protein kinase receptor Tie-1 (Homo sapiens) (UniProt P35590); conditions: Compound concentration 1000.0 nM
[40] = target: Serine/threonine-protein kinase ULK2 (Homo sapiens) (UniProt Q8IYT8); conditions: Compound concentration 1000.0 nM
[41] = target: Vascular endothelial growth factor receptor 2 (Homo sapiens) (UniProt P35968); conditions: Compound concentration 1000.0 nM
[42] = target: Serine/threonine-protein kinase WNK4 (Homo sapiens) (UniProt Q96J92); conditions: Compound concentration 1000.0 nM
[43] = target: 5-hydroxytryptamine receptor 1B (Homo sapiens) (UniProt P28222); conditions: Compound concentration 10.0 uM
[44] = target: 5-hydroxytryptamine receptor 6 (Homo sapiens) (UniProt P50406); conditions: Compound concentration 10.0 uM
[45] = target: Kappa-type opioid receptor (Homo sapiens) (UniProt P41145); conditions: Compound concentration 10.0 uM
[46] = target: Beta-2 adrenergic receptor (Homo sapiens) (UniProt P07550); conditions: Compound concentration 10.0 uM

Tyrosine-protein kinase receptor Tie-1 (Homo sapiens), sequence (P35590 whole entry): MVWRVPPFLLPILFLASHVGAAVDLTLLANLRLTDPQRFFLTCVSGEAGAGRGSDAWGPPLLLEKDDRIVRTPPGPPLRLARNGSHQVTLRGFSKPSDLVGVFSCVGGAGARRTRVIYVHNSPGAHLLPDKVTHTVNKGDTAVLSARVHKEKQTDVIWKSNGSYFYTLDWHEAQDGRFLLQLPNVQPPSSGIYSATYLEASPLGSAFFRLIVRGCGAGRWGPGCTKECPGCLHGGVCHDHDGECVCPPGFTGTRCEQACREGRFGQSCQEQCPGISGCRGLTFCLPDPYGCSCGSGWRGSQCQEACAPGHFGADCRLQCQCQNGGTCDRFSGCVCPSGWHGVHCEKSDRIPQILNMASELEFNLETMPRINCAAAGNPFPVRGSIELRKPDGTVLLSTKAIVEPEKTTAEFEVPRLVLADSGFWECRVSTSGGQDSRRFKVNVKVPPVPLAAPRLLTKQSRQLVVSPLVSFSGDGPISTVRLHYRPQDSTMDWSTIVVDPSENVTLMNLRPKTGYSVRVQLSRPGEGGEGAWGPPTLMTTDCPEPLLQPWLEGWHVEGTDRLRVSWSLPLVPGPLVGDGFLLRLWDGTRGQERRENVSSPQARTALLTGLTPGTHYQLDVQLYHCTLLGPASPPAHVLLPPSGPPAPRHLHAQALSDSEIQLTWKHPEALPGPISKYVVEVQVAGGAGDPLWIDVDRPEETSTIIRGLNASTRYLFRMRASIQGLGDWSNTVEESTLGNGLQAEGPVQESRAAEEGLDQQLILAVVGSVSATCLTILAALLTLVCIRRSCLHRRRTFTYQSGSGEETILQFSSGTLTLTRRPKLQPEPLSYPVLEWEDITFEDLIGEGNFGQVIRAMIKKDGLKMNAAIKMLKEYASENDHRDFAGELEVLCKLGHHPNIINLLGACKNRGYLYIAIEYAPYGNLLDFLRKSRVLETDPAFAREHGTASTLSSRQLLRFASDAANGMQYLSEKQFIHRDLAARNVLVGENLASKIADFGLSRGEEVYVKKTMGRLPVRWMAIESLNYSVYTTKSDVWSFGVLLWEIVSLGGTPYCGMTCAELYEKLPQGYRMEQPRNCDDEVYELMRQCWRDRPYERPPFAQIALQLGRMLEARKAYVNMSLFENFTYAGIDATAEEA
Mitogen-activated protein kinase kinase kinase kinase 2 (Homo sapiens), sequence (Q12851 whole entry): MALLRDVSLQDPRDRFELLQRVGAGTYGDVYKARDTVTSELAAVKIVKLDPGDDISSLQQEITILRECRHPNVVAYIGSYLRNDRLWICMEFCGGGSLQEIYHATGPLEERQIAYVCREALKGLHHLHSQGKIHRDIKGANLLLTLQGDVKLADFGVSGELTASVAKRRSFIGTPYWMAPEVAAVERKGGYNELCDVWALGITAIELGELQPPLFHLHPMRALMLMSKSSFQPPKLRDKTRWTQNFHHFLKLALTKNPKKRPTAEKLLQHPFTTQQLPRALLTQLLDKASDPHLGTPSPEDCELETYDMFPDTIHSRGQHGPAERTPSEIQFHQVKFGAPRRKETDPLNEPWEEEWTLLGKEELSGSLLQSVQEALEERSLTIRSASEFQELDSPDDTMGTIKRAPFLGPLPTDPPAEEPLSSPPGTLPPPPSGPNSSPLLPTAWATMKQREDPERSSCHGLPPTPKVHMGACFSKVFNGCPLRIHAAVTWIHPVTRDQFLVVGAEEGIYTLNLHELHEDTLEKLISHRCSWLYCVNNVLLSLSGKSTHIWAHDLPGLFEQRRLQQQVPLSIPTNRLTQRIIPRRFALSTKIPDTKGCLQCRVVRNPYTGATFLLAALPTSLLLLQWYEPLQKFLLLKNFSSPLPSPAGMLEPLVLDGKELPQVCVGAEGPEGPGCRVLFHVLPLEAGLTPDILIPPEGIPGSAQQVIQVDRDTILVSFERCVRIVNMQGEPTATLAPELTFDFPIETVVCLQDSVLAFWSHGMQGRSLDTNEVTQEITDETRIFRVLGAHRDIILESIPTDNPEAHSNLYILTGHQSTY
Mitogen-activated protein kinase kinase kinase 9 (Homo sapiens), sequence (P80192 whole entry, looked up): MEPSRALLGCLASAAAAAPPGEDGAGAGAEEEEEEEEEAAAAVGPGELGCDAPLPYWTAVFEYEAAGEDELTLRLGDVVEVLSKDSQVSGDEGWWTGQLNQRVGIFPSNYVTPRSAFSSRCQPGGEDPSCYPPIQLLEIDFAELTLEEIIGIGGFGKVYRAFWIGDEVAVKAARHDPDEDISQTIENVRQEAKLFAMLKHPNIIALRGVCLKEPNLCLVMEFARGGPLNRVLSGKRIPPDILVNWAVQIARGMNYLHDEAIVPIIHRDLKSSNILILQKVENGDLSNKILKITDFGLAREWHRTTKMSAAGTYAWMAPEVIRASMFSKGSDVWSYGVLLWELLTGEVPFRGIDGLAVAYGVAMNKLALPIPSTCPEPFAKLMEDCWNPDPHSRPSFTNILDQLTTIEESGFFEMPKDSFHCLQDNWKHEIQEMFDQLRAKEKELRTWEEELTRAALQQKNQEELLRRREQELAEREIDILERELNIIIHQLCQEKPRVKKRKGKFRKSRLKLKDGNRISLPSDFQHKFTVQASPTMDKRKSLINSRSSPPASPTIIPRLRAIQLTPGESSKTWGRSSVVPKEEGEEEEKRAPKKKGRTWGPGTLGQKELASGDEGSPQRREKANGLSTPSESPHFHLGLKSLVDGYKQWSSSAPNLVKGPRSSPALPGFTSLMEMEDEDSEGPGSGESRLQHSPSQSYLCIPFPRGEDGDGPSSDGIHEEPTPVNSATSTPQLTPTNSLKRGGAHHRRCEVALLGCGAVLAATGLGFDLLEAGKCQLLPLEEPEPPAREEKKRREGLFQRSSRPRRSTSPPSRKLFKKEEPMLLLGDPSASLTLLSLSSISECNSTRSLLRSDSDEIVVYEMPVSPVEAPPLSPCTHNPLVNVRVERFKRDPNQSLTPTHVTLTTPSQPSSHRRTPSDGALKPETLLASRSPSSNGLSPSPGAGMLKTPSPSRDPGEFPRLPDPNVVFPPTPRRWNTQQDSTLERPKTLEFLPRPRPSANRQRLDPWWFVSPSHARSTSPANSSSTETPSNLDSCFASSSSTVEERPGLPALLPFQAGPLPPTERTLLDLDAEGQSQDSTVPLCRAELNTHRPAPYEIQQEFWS
Protein-tyrosine kinase 2-beta (Homo sapiens), sequence (Q14289 whole entry, looked up): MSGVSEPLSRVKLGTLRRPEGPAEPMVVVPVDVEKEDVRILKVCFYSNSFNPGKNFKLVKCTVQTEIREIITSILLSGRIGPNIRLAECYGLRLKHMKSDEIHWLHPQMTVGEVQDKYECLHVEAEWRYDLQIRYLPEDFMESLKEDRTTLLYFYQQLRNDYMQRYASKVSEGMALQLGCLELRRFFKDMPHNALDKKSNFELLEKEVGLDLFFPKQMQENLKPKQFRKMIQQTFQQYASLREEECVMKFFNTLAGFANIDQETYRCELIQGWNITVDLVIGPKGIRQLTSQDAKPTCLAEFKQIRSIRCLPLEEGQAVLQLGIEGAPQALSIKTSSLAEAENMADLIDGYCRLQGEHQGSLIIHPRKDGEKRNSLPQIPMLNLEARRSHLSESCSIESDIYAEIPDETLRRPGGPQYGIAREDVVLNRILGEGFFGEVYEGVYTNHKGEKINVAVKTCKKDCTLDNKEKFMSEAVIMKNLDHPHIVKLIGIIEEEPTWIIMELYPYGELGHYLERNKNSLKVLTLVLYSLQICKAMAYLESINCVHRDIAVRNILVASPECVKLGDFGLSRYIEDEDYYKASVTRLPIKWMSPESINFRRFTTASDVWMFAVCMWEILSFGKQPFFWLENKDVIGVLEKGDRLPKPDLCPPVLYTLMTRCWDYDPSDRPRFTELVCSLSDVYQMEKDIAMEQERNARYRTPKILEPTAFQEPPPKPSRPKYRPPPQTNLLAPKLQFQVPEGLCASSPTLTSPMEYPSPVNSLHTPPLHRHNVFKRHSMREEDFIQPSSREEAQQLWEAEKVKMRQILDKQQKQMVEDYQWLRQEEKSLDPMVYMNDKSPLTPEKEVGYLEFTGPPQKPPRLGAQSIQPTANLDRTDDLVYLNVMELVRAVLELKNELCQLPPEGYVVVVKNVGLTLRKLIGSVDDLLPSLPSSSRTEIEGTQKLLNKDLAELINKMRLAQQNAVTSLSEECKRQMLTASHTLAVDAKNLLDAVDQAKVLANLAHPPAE
Cyclin-dependent kinase-like 2 (Homo sapiens), sequence (Q92772 whole entry): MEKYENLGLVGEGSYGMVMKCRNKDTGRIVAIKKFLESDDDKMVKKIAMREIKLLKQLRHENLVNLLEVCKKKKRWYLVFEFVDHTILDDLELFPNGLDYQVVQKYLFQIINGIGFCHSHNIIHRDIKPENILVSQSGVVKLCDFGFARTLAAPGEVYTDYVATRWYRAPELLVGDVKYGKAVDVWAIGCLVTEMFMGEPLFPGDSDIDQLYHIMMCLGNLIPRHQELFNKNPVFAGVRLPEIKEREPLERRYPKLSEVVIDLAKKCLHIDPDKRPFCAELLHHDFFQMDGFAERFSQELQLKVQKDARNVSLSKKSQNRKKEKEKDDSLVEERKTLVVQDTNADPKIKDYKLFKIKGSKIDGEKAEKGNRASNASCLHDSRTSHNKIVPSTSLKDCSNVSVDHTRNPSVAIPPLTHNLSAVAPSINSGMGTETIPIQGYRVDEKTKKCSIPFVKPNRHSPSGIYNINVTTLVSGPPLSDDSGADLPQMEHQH
Bone morphogenetic protein receptor type-1A (Homo sapiens), sequence (P36894 whole entry): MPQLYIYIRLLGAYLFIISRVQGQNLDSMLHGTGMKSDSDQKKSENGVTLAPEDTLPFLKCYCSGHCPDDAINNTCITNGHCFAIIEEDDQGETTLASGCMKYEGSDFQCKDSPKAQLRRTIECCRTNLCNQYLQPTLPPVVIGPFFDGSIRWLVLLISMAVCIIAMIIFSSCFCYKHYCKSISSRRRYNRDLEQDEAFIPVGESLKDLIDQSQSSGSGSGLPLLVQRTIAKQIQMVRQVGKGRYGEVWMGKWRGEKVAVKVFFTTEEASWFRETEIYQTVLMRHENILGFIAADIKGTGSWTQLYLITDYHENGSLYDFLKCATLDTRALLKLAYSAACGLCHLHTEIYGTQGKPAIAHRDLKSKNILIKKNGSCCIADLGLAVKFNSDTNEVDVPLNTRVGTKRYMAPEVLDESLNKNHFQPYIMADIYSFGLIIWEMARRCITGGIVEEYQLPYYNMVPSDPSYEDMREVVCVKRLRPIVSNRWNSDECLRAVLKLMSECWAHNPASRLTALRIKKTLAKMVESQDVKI

N#Cc1ccc(Nc2ccc3[nH]c(=O)[nH]c3c2)c(Cl)c1
inactive: residual activity [1] 92% | residual activity [2] 70% | residual activity [3] 100% | residual activity [4] 91% | residual activity [5] 99% | residual activity [6] 100% | residual activity [7] 100% | residual activity [8] 80% | residual activity [9] 100% | residual activity [10] 94% | residual activity [11] 100% | residual activity [12] 92% | residual activity [13] 92% | residual activity [14] 100% | residual activity [15] 100% | residual activity [16] 93% | residual activity [17] 100% | residual activity [18] 96% | residual activity [19] 95% | residual activity [20] 100% | residual activity [21] 100% | residual activity [22] 96% | residual activity [23] 100% | residual activity [24] 90% | residual activity [25] 80% | residual activity [26] 100% | residual activity [27] 95% | residual activity [28] 100% | residual activity [29] 100% | residual activity [30] 95% | residual activity [31] 100% | residual activity [32] 95% | residual activity [33] 100% | residual activity [34] 83% | residual activity [35] 100% | residual activity [36] 86% | residual activity [37] 100% | residual activity [38] 92% | residual activity [39] 91% | residual activity [40] 99% | residual activity [41] 99% | residual activity [42] 100% | inhibition [43] 6.7% | inhibition [44] -1.18% | inhibition [45] 8.98% | inhibition [46] -0.51%

O=C1CCc2cc(Nc3cc(OC4CCOCC4)c([N+](=O)[O-])cc3Cl)ccc2N1
inactive: residual activity [1] 100% | residual activity [2] 81% | residual activity [3] 97% | residual activity [4] 90% | residual activity [5] 86% | residual activity [6] 97% | residual activity [7] 92% | residual activity [8] 79% | residual activity [9] 84% | residual activity [10] 100% | residual activity [11] 97% | residual activity [12] 79% | residual activity [13] 91% | residual activity [14] 99% | residual activity [15] 100% | residual activity [16] 79% | residual activity [17] 100% | residual activity [18] 96% | residual activity [19] 93% | residual activity [20] 100% | residual activity [21] 100% | residual activity [22] 72% | residual activity [23] 95% | residual activity [24] 99% | residual activity [25] 69% | residual activity [26] 100% | residual activity [27] 100% | residual activity [28] 90% | residual activity [29] 100% | residual activity [30] 88% | residual activity [31] 100% | residual activity [32] 94% | residual activity [33] 97% | residual activity [34] 84% | residual activity [35] 100% | residual activity [36] 98% | residual activity [37] 83% | residual activity [38] 100% | residual activity [39] 100% | residual activity [40] 99% | residual activity [41] 100% | residual activity [42] 100% | inhibition [43] 14.3% | inhibition [44] -2.48% | inhibition [45] 12.4% | inhibition [46] -1.73%
